Source: ChEMBL document CHEMBL1201862, “PubChem BioAssay data set” (2004)
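Method: 48-hour compound exposure of cells in 96-well plates, five concentrations, linear interpolation of endpoints. GI50 is the concentration that inhibits growth by half.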 Calls of active or inactive are those of the source. No stated cut-off is given here; in the data, active = GI50 up to about 1.1 µM and inactive = higher.

Assays:
Assay in all cases: NCI tumour cell line growth inhibition, 48 h
[1] = tested on: 786-0
[2] = tested on: A549
[3] = tested on: ACHN
[4] = tested on: CAKI-1
[5] = tested on: CCRF-CEM
[6] = tested on: COLO 205
[7] = tested on: DMS-114
[8] = tested on: EKVX
[9] = tested on: HCT-116
[10] = tested on: HCT-15
[11] = tested on: HL-60
[12] = tested on: HOP-62
[13] = tested on: HOP-92
[14] = tested on: HT-29
[15] = tested on: IGROV-1
[16] = tested on: K562
[17] = tested on: KM12
[18] = tested on: LOX IMVI
[19] = tested on: LXFL 529
[20] = tested on: M14
[21] = tested on: M19-MEL
[22] = tested on: MOLT-4
[23] = tested on: Malme-3M
[24] = tested on: NCI-H226
[25] = tested on: NCI-H23
[26] = tested on: NCI-H460
[27] = tested on: NCI-H522
[28] = tested on: OVCAR-3
[29] = tested on: OVCAR-4
[30] = tested on: OVCAR-5
[31] = tested on: OVCAR-8
[32] = tested on: RPMI-8226
[33] = tested on: RXF 393
[34] = tested on: SF-268
[35] = tested on: SF-295
[36] = tested on: SF-539
[37] = tested on: SK-MEL-28
[38] = tested on: SK-MEL-2
[39] = tested on: SK-OV-3
[40] = tested on: SN12C
[41] = tested on: SNB-19
[42] = tested on: SNB-78
[43] = tested on: SR
[44] = tested on: SW-620
[45] = tested on: TK-10
[46] = tested on: U-251
[47] = tested on: UACC-62
[48] = tested on: XF498
[49] = tested on: A498
[50] = tested on: HCC 2998
[51] = tested on: KM-20L2
[52] = tested on: SK-MEL-5
[53] = tested on: UACC-257
[54] = tested on: UO-31

Cc1nc(=O)n2c(c1C(=O)Nc1ccc(Cl)cc1)NCCC2
GI50 [1]: > 100 µM (inactive) | GI50 [2]: > 100 µM (inactive) | GI50 [3]: > 100 µM (inactive) | GI50 [4]: > 100 µM (inactive) | GI50 [5]: > 100 µM (inactive) | GI50 [6]: > 100 µM (inactive) | GI50 [7]: > 100 µM (inactive) | GI50 [8]: > 100 µM (inactive) | GI50 [9]: > 100 µM (inactive) | GI50 [10]: > 100 µM | GI50 [11]: > 100 µM (inactive) | GI50 [12]: > 100 µM (inactive) | GI50 [13]: > 100 µM (inactive) | GI50 [14]: > 100 µM (inactive) | GI50 [15]: > 100 µM (inactive) | GI50 [16]: > 100 µM (inactive) | GI50 [17]: > 100 µM (inactive) | GI50 [18]: > 100 µM (inactive) | GI50 [19]: > 100 µM (inactive) | GI50 [20]: > 100 µM (inactive) | GI50 [21]: > 100 µM (inactive) | GI50 [22]: > 100 µM (inactive) | GI50 [23]: > 100 µM (inactive) | GI50 [24]: > 100 µM (inactive) | GI50 [25]: > 100 µM (inactive) | GI50 [26]: > 100 µM (inactive) | GI50 [27]: 2.97 µM (inactive) | GI50 [28]: > 100 µM (inactive) | GI50 [29]: > 100 µM (inactive) | GI50 [30]: > 100 µM (inactive) | GI50 [31]: > 100 µM (inactive) | GI50 [32]: > 100 µM (inactive) | GI50 [33]: > 100 µM (inactive) | GI50 [34]: > 100 µM (inactive) | GI50 [35]: > 100 µM (inactive) | GI50 [36]: > 100 µM (inactive) | GI50 [37]: > 100 µM (inactive) | GI50 [38]: > 100 µM (inactive) | GI50 [39]: > 100 µM (inactive) | GI50 [40]: > 100 µM (inactive) | GI50 [41]: 32 µM (inactive) | GI50 [42]: > 100 µM (inactive) | GI50 [43]: > 100 µM (inactive) | GI50 [44]: > 100 µM (inactive) | GI50 [45]: > 100 µM (inactive) | GI50 [46]: > 100 µM (inactive) | GI50 [47]: > 100 µM (inactive) | GI50 [48]: > 100 µM (inactive)

CC(=O)c1ccc(NC(=O)C(=O)C(C#N)CC(C)(C)C=O)cc1 (stereo not given)
GI50 [1]: > 100 µM (inactive) | GI50 [49]: > 100 µM (inactive) | GI50 [2]: > 100 µM (inactive) | GI50 [3]: > 100 µM (inactive) | GI50 [4]: > 100 µM (inactive) | GI50 [5]: > 100 µM (inactive) | GI50 [6]: > 100 µM (inactive) | GI50 [8]: > 100 µM (inactive) | GI50 [50]: > 100 µM (inactive) | GI50 [9]: > 100 µM (inactive) | GI50 [10]: > 100 µM | GI50 [11]: > 100 µM (inactive) | GI50 [12]: > 100 µM (inactive) | GI50 [13]: 68.4 µM (inactive) | GI50 [14]: > 100 µM (inactive) | GI50 [15]: > 100 µM (inactive) | GI50 [16]: > 100 µM (inactive) | GI50 [51]: > 100 µM (inactive) | GI50 [17]: > 100 µM (inactive) | GI50 [18]: > 100 µM (inactive) | GI50 [19]: > 100 µM (inactive) | GI50 [20]: > 100 µM (inactive) | GI50 [21]: > 100 µM (inactive) | GI50 [22]: > 100 µM (inactive) | GI50 [23]: > 100 µM (inactive) | GI50 [24]: > 100 µM (inactive) | GI50 [25]: > 100 µM (inactive) | GI50 [26]: > 100 µM (inactive) | GI50 [27]: > 100 µM (inactive) | GI50 [28]: > 100 µM (inactive) | GI50 [29]: > 100 µM (inactive) | GI50 [30]: > 100 µM (inactive) | GI50 [31]: > 100 µM (inactive) | GI50 [32]: > 100 µM (inactive) | GI50 [34]: > 100 µM (inactive) | GI50 [35]: > 100 µM (inactive) | GI50 [36]: > 100 µM (inactive) | GI50 [37]: > 100 µM (inactive) | GI50 [38]: > 100 µM (inactive) | GI50 [52]: > 100 µM (inactive) | GI50 [39]: > 100 µM (inactive) | GI50 [40]: > 100 µM (inactive) | GI50 [41]: > 100 µM (inactive) | GI50 [42]: > 100 µM (inactive) | GI50 [43]: > 100 µM (inactive) | GI50 [44]: > 100 µM (inactive) | GI50 [45]: > 100 µM (inactive) | GI50 [46]: > 100 µM (inactive) | GI50 [53]: > 100 µM (inactive) | GI50 [47]: > 100 µM (inactive) | GI50 [54]: > 100 µM (inactive) | GI50 [48]: > 100 µM (inactive)
